Converted amounts (≈) assume the structure as drawn. Like-named read-outs stand apart in the source and are kept apart here. Each block holds one compound with its values, some of them ahead of it.
Assays:
Format in all cases: cell-based
[1] = tested on: S. pneumoniae Clinical Isolates; assay: In vitro activity against clinical isolates, sixth test, Table 7; settings: 78 isolates
[2] = tested on: S. epidermidis, methicillin-resistant; assay: MIC90, broth microdilution (CLSI M7-A7), Table 4; settings: Staphylococcus epidermidis, 64 isolates
Procedure: (§1) The MIC90 values were determined according to the broth microdilution method outlined in the Clinical and Laboratory Standards Institute Approved Standard M7-A7 (2006).

[3] = tested on: S. pneumoniae, penicillin-intermediately resistant; assay: MIC90, broth microdilution (CLSI M7-A7), Table 4; settings: Streptococcus pneumoniae, 26 isolates
Procedure: as §1

[4] = tested on: S. aureus, vancomycin-intermediately resistant; assay: MIC90, broth microdilution (CLSI M7-A7), Table 4; settings: Staphylococcus aureus, 23 isolates
Procedure: as §1

[5] = tested on: H. influenzae, β-lactamase positive; assay: MIC90, broth microdilution (CLSI M7-A7), Table 4; settings: Haemophilus influenzae, 53 isolates
Procedure: as §1

[6] = tested on: S. pneumoniae, penicillin-resistant; assay: MIC90, broth microdilution (CLSI M7-A7), Table 4; settings: 26 isolates; for MIC90: Streptococcus pneumoniae
Procedure: as §1

[7] = tested on: S. aureus, methicillin- and ciprofloxacin-resistant; assay: MIC90, broth microdilution (CLSI M7-A7), Table 4; settings: Staphylococcus aureus, 24 isolates
Procedure: as §1

[8] = tested on: S. aureus, methicillin-resistant and ciprofloxacin-sensitive; assay: MIC90, broth microdilution (CLSI M7-A7), Table 4; settings: 25 isolates; for MIC90: Staphylococcus aureus
Procedure: as §1

[9] = tested on: H. influenzae, β-lactamase positive, ampicillin-resistant; assay: MIC90, broth microdilution (CLSI M7-A7), Table 4; settings: 25 isolates; for MIC90: Haemophilus influenzae
Procedure: as §1

[10] = tested on: S. aureus, vancomycin-resistant; assay: MIC90, broth microdilution (CLSI M7-A7), Table 4; settings: Staphylococcus aureus, 3 isolates, read-out: MIC90 Geometric Mean
Procedure: as §1

[11] = tested on: E. cloacae, extended-spectrum β-lactamase positive; assay: MIC90, broth microdilution (CLSI M7-A7), Table 4; settings: Enterobacter cloacae, 15 isolates
Procedure: as §1

[12] = tested on: S. pneumoniae, levofloxacin-resistant; assay: MIC90, broth microdilution (CLSI M7-A7), Table 4; settings: Streptococcus pneumoniae, 25 isolates
Procedure: as §1

[13] = tested on: S. aureus Clinical Isolates; assay: In vitro activity against clinical isolates, sixth test, Table 7; settings: Staphylococcus aureus, 49 isolates
[14] = tested on: methicillin-resistant S. aureus; assay: MIC90, Japanese Society of Chemotherapy guidelines (1993), Table 3; settings: Staphylococcus aureus, read-out: MIC90
Procedure: (§2) In a second test, compounds having Formulae IV and V, their racemic mixture, and OFLX were tested in vitro against S. aureus strains that are resistant to methicillin or penicillin. The test was conducted according to the guidelines of the Japanese Society of Chemotherapy (1993).

[15] = tested on: penicillin-resistant S. aureus; assay: as above; settings: Staphylococcus aureus, read-out: MIC90
Procedure: as §2

[16] = tested on: GM-resistant P. aeruginosa; assay: MIC90, agar plate dilution method (NCCLS), Table 2; settings: 10 isolates; for MIC90: Pseudomonas aeruginosa
Procedure: (§3) The MIC90 values for this test were determined by the agar plate dilution method according to the National Committee for Clinical Laboratory Standards (“NCCLS”).

[17] = tested on: OFLX-resistant Enterobacteriaceae; assay: MIC90, agar plate dilution method (NCCLS), Table 2
Procedure: as §3

[18] = tested on: APC-resistant Haemophilus influenza.; assay: MIC90, agar plate dilution method (NCCLS), Table 2; settings: for MIC90 Range: APC-resistant Haemophilus influenza., 10 isolates; for MIC90: Haemophilus
Procedure: as §3

[19] = tested on: GM-resistant S. aureus; assay: MIC90, agar plate dilution method (NCCLS), Table 2; settings: 10 isolates; for MIC90: Staphylococcus aureus
Procedure: as §3

[20] = tested on: PCG-resistant S. pneumoniae; assay: MIC90, agar plate dilution method (NCCLS), Table 2; settings: 10 isolates; for MIC90: Streptococcus pneumoniae
Procedure: as §3

[21] = tested on: OFLX-resistant S. aureus; assay: MIC90, agar plate dilution method (NCCLS), Table 2; settings: 10 isolates; for MIC90: Staphylococcus aureus
Procedure: as §3

[22] = tested on: Ofloxacin-resistant Enterobacteriaceae; assay: organism not typed
Text: (§4) As disclosed above, most of these bacteria strains are also relevant to infections of the ear and upper respiratory tract.

[23] = tested on: Gentamicin-resistant Pseudomonas aeruginosa; assay: In vitro anti-bacterial activity, resistant clinical isolates, fifth test, Table 6; settings: read-out: MIC90
Text: as §4

[24] = tested on: Gentamicin-resistant Staphylococcus aureus; assay: as above; settings: read-out: MIC90
Text: as §4

[25] = tested on: Penicillin-resistant Streptococcus pneumoniae; assay: as above; settings: read-out: MIC90
Text: as §4

[26] = tested on: Ofloxacin-resistant Staphylococcus aureus; assay: as above; settings: read-out: MIC90
Text: as §4

MIC90 Range [1]: 0.12 to 0.5 µg/mL | MIC90 ([1]; Streptococcus pneumoniae): 0.25 µg/mL (≈ 0.666 µM) | MIC90 ([2]; read-out: MIC90 Geometric Mean): 1.43 µg/mL (≈ 3.8 µM) | MIC90 ([2]; read-out: MIC90 Value): > 8 µg/mL | MIC90 ([3]; read-out: MIC90 Geometric Mean): 0.344 µg/mL (≈ 0.916 µM) | MIC90 ([3]; read-out: MIC90 Value): 0.5 µg/mL (≈ 1.33 µM) | MIC90 ([4]; read-out: MIC90 Geometric Mean): 3.65 µg/mL (≈ 9.72 µM) | MIC90 ([4]; read-out: MIC90 Value): 8 µg/mL (≈ 21.3 µM) | MIC90 ([5]; read-out: MIC90 Geometric Mean): 0.014 µg/mL (≈ 0.0373 µM) | MIC90 ([5]; read-out: MIC90 Value): 0.03 µg/mL (≈ 0.0799 µM) | MIC90 Range [6]: 0.12 to 0.5 µg/mL | MIC90 ([6]; read-out: MIC90 Geometric Mean): 0.293 µg/mL (≈ 0.781 µM) | MIC90 ([6]; read-out: MIC90 Value): 0.5 µg/mL (≈ 1.33 µM) | MIC90 ([7]; read-out: MIC90 Geometric Mean): > 8 µg/mL | MIC90 ([7]; read-out: MIC90 Value): > 8 µg/mL | MIC90 Range [8]: 0.03 to 8 µg/mL | MIC90 ([8]; read-out: MIC90 Geometric Mean): 0.099 µg/mL (≈ 0.264 µM) | MIC90 ([8]; read-out: MIC90 Value): 0.12 µg/mL (≈ 0.32 µM) | MIC90 Range [9]: 0.008 to 0.06 µg/mL | MIC90 ([9]; read-out: MIC90 Geometric Mean): 0.022 µg/mL (≈ 0.0586 µM) | MIC90 ([9]; read-out: MIC90 Value): 0.03 µg/mL (≈ 0.0799 µM) | MIC90 [10]: 6.35 µg/mL (≈ 16.9 µM) | MIC90 ([11]; read-out: MIC90 Geometric Mean): 1.58 µg/mL (≈ 4.21 µM) | MIC90 ([11]; read-out: MIC90 Value): > 8 µg/mL | MIC90 ([12]; read-out: MIC90 Geometric Mean): 5.43 µg/mL (≈ 14.5 µM) | MIC90 ([12]; read-out: MIC90 Value): > 8 µg/mL | MIC90 [13]: 2 µg/mL (≈ 5.33 µM)
SMILES: COc1c(N2CCNC(C)C2)c(F)cc2c(=O)c(C(=O)O)cn(C3CC3)c12 (stereo not drawn) [GTFX, gatifloxacin]

MIC90 ([14]; ATCC33591, S. aureus (ATCC 33591)): 0.1 µg/mL (≈ 0.254 µM) | MIC90 ([14]; ATCC33592, S. aureus (ATCC 33592)): 0.05 µg/mL (≈ 0.127 µM) | MIC90 ([14]; ATCC33593, S. aureus (ATCC 33593)): 0.05 µg/mL (≈ 0.127 µM) | MIC90 ([14]; S. aureus (No. 395)): 0.1 µg/mL (≈ 0.254 µM) | MIC90 ([14]; S. aureus (No. 415)): 0.05 µg/mL (≈ 0.127 µM) | MIC90 ([14]; S. aureus (No. 419)): 0.1 µg/mL (≈ 0.254 µM) | MIC90 ([14]; S. aureus (No. 420)): 0.05 µg/mL (≈ 0.127 µM) | MIC90 ([14]; S. aureus (No. 421)): 0.1 µg/mL (≈ 0.254 µM) | MIC90 ([15]; ATCC11632, S. aureus (ATCC 11632)): 0.05 µg/mL (≈ 0.127 µM) | MIC90 ([15]; ATCC13301, S. aureus (ATCC 13301)): 0.05 µg/mL (≈ 0.127 µM)
SMILES: N[C@H]1CCCCN(c2c(F)cc3c(=O)c(C(=O)O)cn(C4CC4)c3c2Cl)C1 [V]

SMILES: O=C1CCN(c2c(F)cc3c(=O)c(C(=O)O)cn(C4CC4)c3c2Cl)CCN1 [VI]
MIC90 Range [16]: 0.5 to 64 µg/mL | MIC90 ([16]; read-out: MIC90 Geometric Mean): 6.96 µg/mL (≈ 17.7 µM) | MIC90 ([16]; read-out: MIC90 Value): 32 µg/mL (≈ 81.3 µM) | MIC90 ([17]; read-out: MIC90 Geometric Mean): 32 µg/mL (≈ 81.3 µM) | MIC90 ([17]; read-out: MIC90 Value): 32 µg/mL (≈ 81.3 µM) | MIC90 Range [18]: ≦0.06 μg/ml | MIC90 ([18]; read-out: MIC90 Geometric Mean): ≤ 0.06 µg/mL | MIC90 ([18]; read-out: MIC90 Value): ≤ 0.06 µg/mL | MIC90 Range [19]: ≦0.006-4 μg/ml | MIC90 ([19]; read-out: MIC90 Geometric Mean): 0.43 µg/mL (≈ 1.09 µM) | MIC90 ([19]; read-out: MIC90 Value): 4 µg/mL (≈ 10.2 µM) | MIC90 Range [20]: 0.13 to 0.25 µg/mL | MIC90 ([20]; read-out: MIC90 Geometric Mean): 0.14 µg/mL (≈ 0.356 µM) | MIC90 ([20]; read-out: MIC90 Value): 0.13 µg/mL (≈ 0.33 µM) | MIC90 Range [21]: 0.25 to 8 µg/mL | MIC90 ([21]; read-out: MIC90 Geometric Mean): 1.52 µg/mL (≈ 3.86 µM) | MIC90 ([21]; read-out: MIC90 Value): 4 µg/mL (≈ 10.2 µM)

SMILES: CCn1cc(C(=O)O)c(=O)c2cc(F)c(N3CCNCC3)cc21 [NFLX, norfloxacin]
MIC90 [22]: 128 µg/mL (≈ 401 µM) | MIC90 [23]: 128 µg/mL (≈ 401 µM) | MIC90 [24]: 128 µg/mL (≈ 401 µM) | MIC90 [25]: 8 µg/mL (≈ 25.1 µM) | MIC90 [26]: > 128 µg/mL | MIC90 Range [16]: 0.5 to 128 µg/mL | MIC90 ([16]; read-out: MIC90 Geometric Mean): 5.66 µg/mL (≈ 17.7 µM) | MIC90 ([16]; read-out: MIC90 Value): 128 µg/mL (≈ 401 µM) | MIC90 Range ([17]; OFLX-resistant Enterobacteriaceae, 10 isolates): 16 to 128 µg/mL | MIC90 ([17]; read-out: MIC90 Geometric Mean): 48.5 µg/mL (≈ 152 µM) | MIC90 ([17]; read-out: MIC90 Value): 128 µg/mL (≈ 401 µM) | MIC90 Range [18]: ≦0.06 μg/ml | MIC90 ([18]; read-out: MIC90 Geometric Mean): ≤ 0.06 µg/mL | MIC90 ([18]; read-out: MIC90 Value): ≤ 0.06 µg/mL | MIC90 ([19]; read-out: MIC90 Geometric Mean): 48.5 µg/mL (≈ 152 µM) | MIC90 ([19]; read-out: MIC90 Value): > 128 µg/mL | MIC90 Range [20]: 2 to 8 µg/mL | MIC90 ([20]; read-out: MIC90 Geometric Mean): 4.29 µg/mL (≈ 13.4 µM) | MIC90 ([20]; read-out: MIC90 Value): 8 µg/mL (≈ 25.1 µM) | MIC90 ([21]; read-out: MIC90 Geometric Mean): 194 µg/mL (≈ 608 µM) | MIC90 ([21]; read-out: MIC90 Value): > 128 µg/mL
